Data reported in patent publication US6703399B2, “Halo-alkyl esters of camptothecins and methods of treating cancer using these compounds” (priority 2002, dated 2004).

Columns and labels:
[1] = water-soluble sodium carboxylate salt; cited from earlier work
[2] = Plasma levels of 9NC after i.s. administration, share in closed lactone form; type: in vivo; conditions: species not given, mice from b8 and b10
[3] = Plasma levels of 9NC after oral administration to Phase I clinical trial patients, share in closed lactone form; type: in vivo, humans; conditions: on average
human tumor xenografts [4] = assay: Antitumor activity against human tumor xenografts in mice; type: in vivo
From the text: (§1) Clearly, there is a pressing need for a modification which will slow and delay the lactone ring opening upon its entrance into the blood circulation.

tumors = assay: Clinical responses in Phase I patients; type: in vivo; conditions: in humans
From the text: as §1

human tumor xenografts [5] = conditions: in mice; cited from earlier work
[6] = Pharmacokinetics of CPT in human plasma, lactone half-life; type: in vitro ADME
[7] = Plasma CPT after intrastomach administration in mice, closed lactone share of AUC; type: in vivo
[8] = Plasma CPT after oral administration in humans, closed lactone share of AUC; type: in vivo

CC[C@@](O)(C(=O)[O-])c1cc2n(c(=O)c1CO)Cc1cc3ccccc3nc1-2.[Na+] [sodium carboxylate salt]
anticancer activity in clinical evaluation [1]: devoid of anticancer activity
toxicity in clinical evaluation [1]: severe toxicity

CC[C@@]1(O)C(=O)OCc2c1cc1n(c2=O)Cc2cc3c([N+](=O)[O-])cccc3nc2-1 [Example 9NC, 9-nitrocamptothecin]
share of drug present in the plasma in the closed lactone form [2]: 57%
share of drug present in plasma in the closed lactone form [3]: ~3%
complete tumor regressions (human tumor xenografts [4]): 32/32
complete tumor regressions (tumors): 2/32
potency relative to CPT against human tumor xenografts (human tumor xenografts [5]): 2-3 times

20(S)-camptothecin [CPT]
half-life time of the drug with lactone intact [6]: 30 min
closed lactone form, share of the area under the curve [7]: approximately 54%
closed lactone ring form, share of the area under the curve [8]: about 0.4%
